Like-named read-outs stand apart in the source and are kept apart here. No end group written: not given here.
Tests used:
ob gene [1] = test: In vivo ob mRNA levels in adipose tissue of treated rats (Northern/dot blot, actin-normalised); design: species or system rat
[2] = In vivo body weight, food intake and tissue weights in treated rats; details: for food consumption: 4 days, triamcinolone 20 or dexamethasone 3.7 μg/g body weight/day; for Epidydimal fat pad weight / Liver weight / Body Mass: oral gavage; for Epidydimal fat pad weight: control 2.5 ± 0.3, * p < 0.05; for Liver weight: control 16.8 ± 1.3; for Body Mass: control 344 ± 22
[3] = tested on: PPAR nuclear hormone receptors; details: cited from earlier work
human ob promoter [4] = test: Human ob promoter-luciferase reporter in transfected 3T3-L1 cells
human ob promoter [5] = test: Human ob promoter-luciferase reporter in transfected rat primary adipocytes
ob gene [6] = test: Ex vivo endogenous ob mRNA expression in rat primary adipocytes; type: cell-based; details: for ob mRNA expression in primary rat adipocytes: 24 hr; for production of ob messenger RNA in rat primary adipocytes: insulin 100 nM or dexamethasone 33 nM
cachexia = details: cancer patients; cited from earlier work
[7] = cited from earlier work
[8] = Body weight and food intake of male mice injected with ethinylestradiol; type: in vivo, mouse; details: 0.75 μg/g body weight, 7 day
[9] = tested on: 3T3-F442A and ob 17 cells; details: cited from earlier work
[10] = 4 days, triamcinolone 20 or dexamethasone 3.7 μg/g body weight/day
[11] = fenofibrate 0.5% w/w in food, 14 days
[12] = hydrocortisone 1, 10 or 100 μg/g body weight, s.c., once daily, 20 days
[13] = hydrocortisone 100 μg/g body weight, once daily, 20 days

C[C@]12C=CC(=O)C=C1CC[C@H]1[C@@H]3C[C@@H](O)[C@](O)(C(=O)CO)[C@@]3(C)C[C@H](O)[C@@]12F [triamcinolone]
ob mRNA levels (ob gene [1]; [10]): increase of ob mRNA levels
food consumption [2]: reduced food consumption

CC(C)(Oc1ccc(Cl)cc1)C(=O)O [Clofibric acid]
transcriptional activity of PPARs [3]: stimulate transcriptional activity of the PPAR nuclear hormone receptors

CC(C)OC(=O)C(C)(C)Oc1ccc(C(=O)c2ccc(Cl)cc2)cc1 [fenofibrate]
ob mRNA levels (ob gene [1]; [11]): did not result in a reduction of ob mRNA levels
transcriptional activity of PPARs [3]: stimulate transcriptional activity of the PPAR nuclear hormone receptors
body or adipose tissue weight [2, 11]: did not result in a change in body or adipose tissue weight
liver weight after treatment ([2]; fenofibrate 0.5% w/w in food, 14 days, from 13.8±0.5): 19.7 ± 2.5 g

CN(CCOc1ccc(CC2SC(=O)NC2=O)cc1)c1ccccn1 (stereo not shown) [BRL 49653, 5-[[4-[2-(methyl-2-pyridinylamino)ethoxy]phenyl]methyl]-2,4-thiazolidinedione]
effect on pGL3-OB1 in addition to PPARγ (human ob promoter [4]; with PPARγ cotransfection): slight cumulative effect
effect on ob mRNA expression, dose dependence (ob gene [1]; BRL 49653 0, 1, 2 or 5 mg/kg/day, 7 days): dose-dependent
decrease of ob mRNA levels in epidydimal fat pads (ob gene [1]; BRL 49653 5 mg/kg/day, 7 days): 40%
body or liver weight ([2]; 0, 1, 2, and 5 mg/kg/day over 7 days): no change in either body or liver weight
ratio of adipose tissue/body weight after treatment ([2]; 5 mg/kg/day, 7 days, 0.75%±0.1 before, p<0.05): 1.2%±0.2
food intake ([2]; 5, 10, 20 mg/kg/day over 7 days): significant dose dependent increase in food intake
Epidydimal fat pad weight ([2]; BRL 49653 1 mg/kg/day, 7 days): 3.3 ± 0.2 g
Liver weight ([2]; BRL 49653 1 mg/kg/day, 7 days): 17.9 ± 1.3 g
Body Mass ([2]; BRL 49653 1 mg/kg/day, 7 days, mean ± SD): 355 ± 21 g
Epidydimal fat pad weight ([2]; BRL 49653 2 mg/kg/day, 7 days): 3.8 ± 0.5 g
Liver weight ([2]; BRL 49653 2 mg/kg/day, 7 days): 18.9 ± 0.6 g
Body Mass ([2]; BRL 49653 2 mg/kg/day, 7 days): 361 ± 18 g
Epidydimal fat pad weight ([2]; BRL 49653 5 mg/kg/day, 7 days): 4.0 ± 0.6 g
Liver weight ([2]; BRL 49653 5 mg/kg/day, 7 days): 17.4 ± 1.8 g
Body Mass ([2]; BRL 49653 5 mg/kg/day, 7 days): 338 ± 9 g
epidydimal fat pad weight (trend) ([2]; BRL 49653 1, 2, 5 mg/kg/day, 7 days): dose-dependent increase in epidydimal fat pad weight
food intake and body weight (summary statement) ([2]; rats): increasing food intake and body weight in rats
food intake ([2]; relatively low doses (1, 2, 5 mg/kg/day), 7 days): food intake showed a tendency to decrease, although no statistical significance was obtained
additional effect on ob promoter activity (human ob promoter [5]; 10 μM, with PPARγ cotransfection): no further effect
activity at 10 µM (human ob promoter [5]; Homo sapiens, Adipocyte, read-out: ob promoter activity reduced to): 40%
ob mRNA expression in primary rat adipocytes (ob gene [6]; 100 μM, three independent experiments): reduced ob mRNA expression significantly
suppression of ob gene expression by PPARγ in primary adipocytes (ob gene [6]; primary adipocytes): amplifies the suppression of ob gene expression by PPARγ in primary adipocytes

C[C@]12CCC(=O)C=C1CC[C@@H]1[C@@H]2[C@@H](O)C[C@@]2(C)[C@H]1CC[C@]2(O)C(=O)CO [hydrocortisone]
time of maximal ob mRNA effect (ob gene [1]; hydrocortisone 100 μg/g body weight/day): 2 days
increase of ob mRNA levels (ob gene [1]; hydrocortisone 100 μg/g body weight/day, adipose tissue): more than 2 fold
ob mRNA levels in adipose tissue (ob gene [1]; [12]): dose-dependent induction of ob mRNA levels in adipose tissue
β-actin mRNA levels (ob gene [1]; hydrocortisone, entire treatment period): remained constant
body weight at end of treatment ([2]; hydrocortisone 100 μg/g body weight, 20 days): slight decrease in body weight
body weight gain [2, 13]: completely prevented this gain in body weight
reduction of food consumption vs untreated animals [2, 13]: 10-15%
body weight gain [2, 12]: dose-dependent reduction in body weight gain

insulin: insulin (1 U; Actrapid HMge, Novo Nordisk)
ob promoter luciferase expression in response to insulin (human ob promoter [4]; pGL3-OB1 in 3T3-L1 cells, insulin, control plasmid unaffected): two-fold
stimulatory effect of insulin on ob mRNA under clamp (ob gene [1]; hyper- or eu-glycemic clamps): maintained when plasma glucose levels were maintained at either high or low levels
ob mRNA level, refeeding plus insulin (ob gene [1]; refeeding plus insulin after overnight fast): no additive effects on ob mRNA level
increase in adipose tissue ob gene expression relative to fasted rats (ob gene [1]; single dose insulin (1 U), fasted rats, 4 hours): 50-60%
increase in ob mRNA relative to actin controls (ob gene [1]; single subcutaneous injection 1 I.U. insulin, 4 hours post injection, fasted rats): approximately two-fold increase
increase of the level of ob mRNA (pGL3B-OB1 luciferase vector) (human ob promoter [5]; 200 nM insulin, 10% FBS, primary adipocytes with pGL3B-OB1): 140%
production of ob mRNA in primary rat adipocytes (ob gene [6]; 1 or 10 nM insulin, 10% FBS): stimulated the production of ob mRNA in a dose dependent manner
production of ob messenger RNA in rat primary adipocytes (ob gene [6]; 48 hours): stimulated production of the ob messenger RNA

CC(=O)CCCCn1c(=O)c2c(ncn2C)n(C)c1=O [pentoxifylline]
reduction of cachexia (cachexia): improve the conditions of some patients

corticotropin-releasing hormone: corticotropin-releasing hormone (SEEPPISLDLTFHLLREVLEMARAEQLAQQAHSNRKLMEII; ends and bridges not checked; UniProt P06850 154-194, looked up)
body weight ([7]; hypothalamic administration, fat rats): reduces body weight

C#C[C@]1(O)CC[C@H]2[C@@H]3CCc4cc(O)ccc4[C@H]3CC[C@@]21C [ethinyl estradiol, ethinylestradiol]
body weight effect under pair-feeding ([7]; ovariectomized rats, pair-fed): pair-feeding abolished the effects of estrogens on body weight
body weight ([7]; ovariectomized rats, substitution therapy): marked effect on body weight in ovariectomized rats
decrease in body weight ([8]; injected, sham +1.81±1.04%): 14.83±1.44%
food intake ([8]; male mice): important reduction in food intake

C[C@@H]1C[C@H]2[C@@H]3CCC4=CC(=O)C=C[C@]4(C)[C@@]3(F)[C@@H](O)C[C@]2(C)[C@@]1(O)C(=O)CO [dexamethasone]
ob mRNA levels (ob gene [1]; [10]): increase of ob mRNA levels
increase of ob mRNA levels in rat adipose tissue (ob gene [1]; within 24 hr after a single injection of dexamethasone (3.7 μg/g)): 2.2 fold
food consumption [2]: reduced food consumption
stimulation of ob gene expression, comparison with insulin (ob gene [6]; dexamethasone 33 nM vs insulin 100 nM, 48 hours): stronger stimulation of ob gene expression than insulin
production of ob messenger RNA in rat primary adipocytes (ob gene [6]; 48 hours): stimulated production of the ob messenger RNA

CCCCC(CC)COC(=O)c1ccccc1C(=O)OCC(CC)CCCC (stereo not shown) [di-(2-ethylhexyl)-phtalate]
transcriptional activity of PPARs [3]: transcriptional activity of the PPARs can be induced

CC(C)(Oc1ccc(C(=O)c2ccc(Cl)cc2)cc1)C(=O)O [fenofibric acid]
ob mRNA expression in primary rat adipocytes (ob gene [6]; 250 μM): no effect of fenofibrate on ob mRNA levels was detected

Cc1ccc(C)c(OCCCC(C)(C)C(=O)O)c1 [gemfibrozil]
transcriptional activity of PPARs [3]: stimulate transcriptional activity of the PPAR nuclear hormone receptors

N-propyl-thiouracil
body weight ([7]; rats, literature): significant increase in body weight
food intake ([7]; rats, literature): ingest less food

N[C@@H](Cc1cc(I)c(Oc2cc(I)c(O)c(I)c2)c(I)c1)C(=O)O [thyroxine]
body weight ([7]; rats, literature): decrease in body weight
food intake ([7]; rats, literature): increase in food intake

CCc1ccc(CCOc2ccc(CC3SC(=O)NC3=O)cc2)nc1 (stereo not shown) [Pioglitazone, pioglitazone]
inhibition at 10 µM (human ob promoter [5]; Homo sapiens, Adipocyte, read-out: decrease in pGL3-OB1 expression): ~30%
inhibition at 10 µM (human ob promoter [5]; Homo sapiens, Adipocyte, read-out: inhibition of pGL3-OB1 expression): ~50%

CC1=C(/C=C/C(C)=C/C=C/C(C)=C/C(=O)O)C(C)(C)CCC1 [Retinoic acid]
adipogenesis [9]: inhibit adipogenesis

O=C(O)COc1cc(Cl)c(Cl)cc1Cl [2,4,5-trichlorophenoxyacetic acid]
transcriptional activity of PPARs [3]: transcriptional activity of the PPARs can be induced

CC(C)(Oc1ccc(Cl)cc1)C(=O)OCCOC(=O)c1cccnc1 [etiofibrate]
transcriptional activity of PPARs [3]: stimulate transcriptional activity of the PPAR nuclear hormone receptors

C[C@]12CC[C@H](O)CC1=CC[C@@H]1[C@@H]2CC[C@]2(C)C(=O)CC[C@@H]12 [DHEA, Dihydroepiandosterone]
food intake ([2]; DHEA, short experiment, rats): significant decrease in food intake
gain in body weight ([2]; DHEA, three day treatment, rats): capable of reducing the gain in body weight already after a three day treatment period
